How the values were obtained:
[1] = tested on: unwaxed pixie oranges; assay: Mass loss factor of coated unwaxed pixie oranges (Example 13); type: in vivo, orange; conditions: 2 g/L sorbitan monolaurate added to 50 g/L 95/5 monostearate/sodium stearate, bowl dip, 70° C.
Protocol: (§1) As used herein, the term “mass loss factor” is defined as the ratio of the average mass loss rate of uncoated produce (measured for a control group) to the average mass loss rate of the corresponding tested produce (e.g., coated produce) over a given time.
FIG. 21 is a graph showing mass loss factors for unwaxed pixie oranges (“pixies”). One group of pixies was not treated. A second group of pixies was treated with 50 g/L of Treatment C. A third group of pixies was treated with 50 g/L of Treatment C and 2 g/L of a wetting agent (WAG). A fourth group of pixies was treated with 50 g/L of a 95/5 mixture of monostearate/sodium stearate and 2 g/L sorbitan monolaurate. The coatings were applied using a bowl dip method and were dried at a temperature of 70° C. […] The pixies were mostly dry (~80%) coming out of the heat tunnel.

[2] = tested on: California avocados; assay: Respiration factor of coated California avocados (Example 11); type: in vivo, avocado; conditions: 30 g/L sorbitan ester
Source text: (§2) As used herein, the term “respiration rate” refers to the rate at which the product releases gas, such as CO2. This rate can be determined from the volume of gas (e.g., CO2) (at standard temperature and pressure) released per unit time per unit weight of the product. The respiration rate can be expressed as ml gas/kg·hour. The respiration rate of the product can be measured by placing the product in a closed container of known volume that is equipped with a sensor, such as a CO2 sensor, recording the gas concentration within the container as a function of time, and then calculating the rate of gas release required to obtain the measured concentration values.
(§3) As used herein, the term “respiration factor” is defined as the ratio of the average gas diffusion (e.g., CO2 release) of uncoated produce (measured for a control group) to the average gas diffusion of the corresponding tested produce (e.g., coated produce) over a given time.
FIG. 17 is a graph showing mass loss factors for California avocados. The Untreated group of avocadoes was not treated. A second group of avocados was treated with 15 g/L of Treatment C. A third group of avocados was treated with 30 g/L of Treatment C. A fourth group of avocados was treated with 30 g/L sorbitan monopalmitate (MP) (100 wt%). A fifth group of avocados was treated with a 30 g/L sorbitan monostearate (MS). […]

[3] = X-ray scattering of thin-film coatings (Example 10); type: physicochemical; conditions: 95 wt% sorbitan ester / 5 wt% sodium stearate; film cast from 30 g/L aqueous solution, dried 40° C. 4 hours
Source text: As used herein, “lamellar structure” refers to a structure comprising lamella(e) vertically stacked adjacent to each other and held together by intermolecular forces. As used herein, “lamella(e)” refers to one lamella or two or more lamellae, that is, one or more discrete layers of molecules, respectively. In some embodiments, the molecules present in the lamella(e) are ordered (e.g., aligned, as in an open bilayer). The distance between a surface of a lamella and a surface of an adjacent lamella that is facing the same direction is referred to herein as “interlayer spacing” or “periodic spacing”. Interlayer spacing between two lamellae is determined by (1) obtaining an out-of-plane X-ray scattering image of a coating, (2) determining the scattering vector (q) of the peak corresponding to the lamellar structure, and (3) using Bragg’s equation below, determine the interlayer spacing (d).
Coating agents were applied to the surface of a plastic substrate, which acts as a hydrophilic surface when exposed to air. An X-ray scattering image of the applied coat was obtained to identify characteristics of the coating.
Specifically, a coating agent of sorbitan monostearate (95 wt%) and sodium stearate (5 wt%) was applied to a substrate as a thin-film. The films were drop cast from a 30 g/L aqueous solution and dried at 40° C. for 4 hours. […] “LAM” refers to lamellar or bilayer morphology. […]

[4] = tested on: Mexican avocados; assay: Respiration factor of coated Mexican avocados (Example 12); type: in vivo, avocado; conditions: day 1
Source text: as §2, §3
FIG. 19 is a graph showing mass loss factors (MLF) for Mexican avocados. A first group of avocados was not treated. A second group of avocados was treated with 20 g/L of Treatment C. A third group of avocados was treated with 40 g/L of Treatment C. The monoglyceride coatings were mixed with a high shear mixer. A fourth group of avocados was treated with 20 g/L of a mixture of sorbitan monostearate (94 wt%) and sodium stearate (6 wt%). […]

[5] = tested on: Mexican avocados; assay: Mass loss factor of coated Mexican avocados (Example 12); type: in vivo, avocado; conditions: brush bed, dried 70° C., sorbitan monostearate as 94 wt% with 6 wt% sodium stearate
Protocol: as §1
FIG. 19 is a graph showing mass loss factors (MLF) for Mexican avocados. A first group of avocados was not treated. A second group of avocados was treated with 20 g/L of Treatment C. A third group of avocados was treated with 40 g/L of Treatment C. The monoglyceride coatings were mixed with a high shear mixer. A fourth group of avocados was treated with 20 g/L of a mixture of sorbitan monostearate (94 wt%) and sodium stearate (6 wt%). A fifth group of avocados was treated with 40 g/L of a mixture of sorbitan monostearate (94 wt%) and sodium stearate (6 wt%). The sorbitan monostearate coatings were mixed with blenders. The coatings were applied using a brush bed and were dried at a temperature of 70° C. […] The MLF of 20 g/L of […] monostearate/sodium stearate was 1.49 and the MLF of the 40 g/L 95/5 monostearate/sodium stearate was 2.24.

Substance	mass loss factor increase compared to the untreated substrates [1] [times]	respiration factor compared with 95/5 monostearate/sodium stearate at 30 g/L [2]	periodicity of alternating bilayers [3] [nm]	RF (respiration factor) ([4]; 20 g/L)	RF (respiration factor) ([4]; 40 g/L)	MLF (mass loss factor) ([5]; 20 g/L)	MLF (mass loss factor) ([5]; 40 g/L)
sorbitan monolaurate	3.56						
sorbitan monopalmitate		higher	5.6				
sorbitan monostearate		comparable	5.5	1.15	1.25	1.83	2.32

Reference: US20230072790A1, “COMPOUNDS AND FORMULATIONS FOR PROTECTIVE COATINGS” (Apeel Technology, Inc., priority 2021, published 2023)
